We go through one compound from patent US4375542A, “Kijanimicin antibiotics and derivatives thereof” (Schering Corporation, priority 1980, dated 1983).

For one data set, the system named is P-388 leukemia. Briefly: in vivo anti-tumor test, P-388 leukemia in mice (standard National Cancer Institute test). The protocol:
Anti-tumor activity was determined by the standard National Cancer Institute test which was published in Cancer Chemothr. Rep. 3:1-103 1972.
In the test 10^6 cells per mouse of P-388 leukemia (bleomycin sensitive) is administered intraperitoneally on day 1. The test compound is serially diluted (1/10, 1/100, etc.) and each dilution is administered to a mouse from day 1 to day 9. Animals dying on or before day 5 are listed as toxic deaths. Controls are run using bleomycin and olivomycin A. The results are calculated by the formula in which MST=medium survival time in days;
MST ^T /C=MST-T/MST-Control×100.

For data set [1] the following is noted: room temperature at pH 2-3.
A further data set relates to Peptococcus species. The experiment in a line: in vitro activity against anaerobic bacteria: Peptococcus species. Type of data set: cell-based. From the text:
(§1) Kijanimicin is also active against strains of anaerobic bacteria other than P. acnes. For example, when tested in vitro, the antibiotic was active against strains of Peptococcus species, Peptostreptococcus and E. lentum.

Data set [2] in a line: acute toxicity (LD50) and therapeutic index. Type of data set: in vivo.
The subject of a further data set is E. lentum. Briefly: in vitro activity against anaerobic bacteria: E. lentum. Type of data set: cell-based.
From the text: as §1

Data set [3] in a line: anti-inflammatory activity, art recognized test procedures.
The next data set has as its system Plasmodium berghei. The experiment in a line: antimalarial activity in infected CF1 mice. Type of data set: in vivo, Plasmodium berghei; CF1 mice. Particulars: therapy commenced one day after infection.
The test system of the next data set is Peptostreptococcus. Briefly: in vitro activity against anaerobic bacteria: Peptostreptococcus. Type of data set: cell-based.
From the text: as §1

Regarding `COC(=O)N[C@H]1[C@@H](C)O[C@@H](O[C@H]2C/C=C(\C)[C@@H]3C=C[C@@H]4[C@@H](O[C@H]5C[C@@H](O[C@H]6CC(O[C@H]7C[C@H](O)[C@@H](O)[C@H](C)O7)C(O[C@@H]7C[C@@H](O)[C@@H](OC)[C@H](C)O7)[C@H](C)O6)[C@@H](O)[C@H](C)O5)[C@@H](C)C[C@H](C)[C@H]4[C@]3(C)/C(O)=C3\C(=O)O[C@]4(C[C@@H](C)C(CO)=C[C@H]4/C=C/2C)C3=O)C[C@]1(C)[N+](=O)[O-]` (some centres unmarked) [Kijanimicin], the “anti-tumor activity against P-388 leukemia” value in the data set with P-388 leukemia was “exhibits anti-tumor activity”. In addition, in data set [1], the loss of activity result is reported as “loses activity rapidly”. In addition, the “in vitro activity against Peptococcus species” value in the data set on Peptococcus species is listed as “active”. In data set [2] (oral), the “oral LD50” value is listed as “greater than 1000 mg/kg” and the “therapeutic index (LD50 / PD50), oral” value was “about 10”. In data set [2] (subcutaneous), the “subcutaneous LD50” value is recorded as “greater than 1000 mg/kg” and the “therapeutic index (LD50 / PD50), subcutaneous” value is given as “about 10”. Moreover, in the data set on E. lentum, the “in vitro activity against E. lentum” value is given as “active”. In addition, the anti-inflammatory effect result in data set [3] is listed as “exhibits an anti-inflammatory effect”. In addition, the “antiparasitic activity, Plasmodium berghei” value in the data set with Plasmodium berghei is on record as “exhibits antiparasitic activity”. Besides, the “in vitro activity against Peptostreptococcus” value in the data set on Peptostreptococcus was “active”.
